≈ marks a conversion by molar mass, not a printed value. Like-named read-outs stand apart in the source and are kept apart here. Bridge positions count the residues as written; N and C are the ends. Square brackets hold non-standard residues; d marks the D form. Peptide text beside a SMILES is read from it. I, II: the chains in the order shown. Ahx = NCCCCCC(=O)O
Columns and labels:
MCF-7 cell line = experiment: MTT viability test, MCF-7 cells; type: cell-based, human
Procedure: (§1) For all cell lines, the medium used was Dulbecco’s Modified Eagle’s Medium (DMEM)/Nutrient Mixture F-12 Ham. For the HTB-132, MCF-7, and MCF-12A lines, the medium was supplemented with 10% fetal bovine serum (SFB), and 1.5 g/L NaHCO3 and NaOH were added up to pH 7.4, amphotericin (200 μg/mL), and 1% penicillin and streptomycin. For the primary culture cells of bovine mammary epithelium and fibroblasts, in addition to the above, hydrocortisone (250 μg/mL) was added. All media were filtered through a 0.22 μm membrane.
(§2) Briefly, the cells were seeded with a complete medium in 96-well plates at a rate of 10,000 cells and 100 µL per well, and adhesion to the plates was allowed for 24 h. Subsequently, the complete medium was removed and an incomplete medium was added for synchronization for another 24 h. The cells were then incubated at 37 °C for 2, 24, or 48 h with 100 μL of peptide at the concentrations to be evaluated (200, 100, 50, 25, 12.5, 6.25 and 3.1 μg/mL). Next, the peptide was removed from the box, and 100 µL of incomplete medium with 10% 3-4,5-dimethylthiazol-2-yl-2,5-diphenyltetrazole (MTT) bromide was added and incubated for 4 h. The medium was replaced with 100 μL of isopropanol (IPA), and after 30 min of incubation at 37 °C, the absorbance was measured at 575 nm. As a negative control, an incomplete culture medium with 10% MTT was used, and as a positive control, cells without MTT treatment were used.

HTB-132 cell line [1] = experiment: MTT viability test, HTB-132 cells; type: cell-based, human; settings: for IC50, cytotoxic effect, HTB-132: 24 h at 37 °C, mean of n = 3
Procedure: as §1, §2

MCF-7 cells [2] = experiment: Mitochondrial membrane depolarization, JC-1 flow cytometry; type: cell-based, human; settings: MCF-7, peptide 15 µM
Procedure: For this test, the MitoProbeTM JC-1 Assay kit (M34152 from Termofisher, Walthan, MA, USA) was used according to the supplier’s recommendations. The cells seeded and synchronized in a box of 24 wells (4 × 10^4 cells/well) were incubated with 400 μL of peptide to be evaluated at 2 and 24 h. The cells were then trypsinized and collected by centrifugation at 400 g × 5 min. The resulting pellet was stained by adding 100 μL of JC1 “working solution” (1:100 JCI solution reconstituted in DMSO: buffer assay 1×) and incubated at 37 °C for 20 min. Subsequently, the cells were washed twice with 1× buffer assay and finally resuspended in 100 μL of 1× buffer assay for reading on the cytometer. Negative control: cells without treatment; positive control: cells treated with 10 μM actinomycin for 24 h.

MCF-12 cell line = type: cell-based, human
Procedure: as §1, §2

MCF-7 cells [3] = experiment: Cell morphology and size by inverted microscope; type: cell-based, human; settings: MCF-7, 90 min of treatment, 37 °C; from 100.27 μm before; average of 100 measurements; Figure 3: 100 µg/mL
Procedure: Cell morphology was monitored before and after treatment with ^26[L] or ^26[F] at different times, using an inverted microscope coupled to an AxioCam ICc1 camera (Figure 3). The untreated cells had normal morphologic characteristics as polygonal, flattened, and elongated cells with long and defined axons (data not shown). After 5 min of treatment with the peptide, most cells retained their morphology; however, some began to appear rounded and shrunken. After 90 min, the cells treated with the peptide (^26[L] or ^26[F]) took on a rounded shape, and shrinkage was observed, going from an average size of 100.27 μm to 39.38 µm. […] At 24 h of treatment, the appearance of small vacuoles was observed, presumably associated with late apoptosis events. Finally, it was observed that the effect of the peptide was sustained up to 48 h since at that time no recovery of cell morphology was observed.
Figure 3 Micrography of MCF-7 cells treated with peptide ^26[F] at 100 µg/mL. The cells were incubated in the absence (A) or the presence of the peptide at (B) 5 min, (C) 90 min, (D) 240 min, (E) 24 h, and (F) 48 h at 37 °C. The cell size was determined as an average of 100 measurements, using an AxioCam ICc1 camera.

[4] = system: breast cancer cell lines HTB-132 and MCF-7; type: cell-based, human; settings: 24 h
Procedure: as §2

MCF-7 cells [5] = experiment: Type of cell death (apoptosis/necrosis), Annexin V/PI flow cytometry; type: cell-based, human; settings: MCF-7, peptide 15 µM, 24 h, annexin V and PI
Procedure: The cells were seeded and synchronized in boxes of 24 wells at a concentration of 4 × 10^4 cells/well in 400 μL/well, adhesion and synchronization were allowed in the same way as in Section 4.8, and the culture medium was replaced with medium containing the peptide to be evaluated and incubated for 2 or 24 h. Subsequently, the cells were harvested with trypsin, centrifuged at 2500 rpm for 10 min, washed with PBS, and resuspended in 10 μL of staining buffer with the fluorochromes (10 mM Hepes pH 7.4; 10 mM NaCl and 2.5 mM CaCl2 containing 1 μL of PI fluorochrome and 1 μL of Annexin V). Cells with the fluorochromes were incubated at 37 °C in the dark for 15 min and resuspended in 80 μL of staining buffer without fluorochromes for analysis via flow cytometry. The positive control of necrosis was: cells treated with EDTA 15 mM for 60 min, and apoptotic: cells treated with Actinomycin at 10 μM for 24 h. Negative control: cells without treatment; compensation controls: (i) cells stained only with Annexin, and (ii) only with PI; population control: unstained and untreated cells.

MCF-7 cells [6] = experiment: Integrity of the cytoplasmic membrane, SYTO9/PI flow cytometry; type: cell-based, human; settings: MCF-7, peptide 15 µM, PI and SYTO9
Procedure: The cells with complete medium were seeded and synchronized in boxes of 24 wells in a concentration of 4 × 10^4 cells/well in a volume of 400 μL/well, and adhesion to the plate was allowed for 24 h [52]. Then the complete medium was replaced by incomplete medium for synchronization of the cells for an additional 24 h. […] The cells were harvested by adding 200 μL of trypsin and incubating for 10 min. The trypsin was quenched with 200 µL of complete medium, and the cells were centrifuged at 2500 rpm for 10 min. The supernatant was discarded, and the pellet was washed with 100 µL PBS and centrifuged under the same conditions previously described. The supernatant was discarded, and the cells were stained with 30 μL of a solution from the LIVE/DEAD® FungaLigthTM commercial kit (Invitrogen) containing the mixture of fluorochromes (0.5 μL of SYTO9 and/or 0.5 μL of propidium iodide (PI) with 99 μL of PBS). Subsequently, the cells were incubated at room temperature and in the dark for 20 min and centrifuged, and the supernatant was discarded. The pellet was resuspended in 100 μL of PBS and analyzed via flow cytometry in a BD Accuri C6 device. The events were recorded using the green channel (FL1) on the abscissa axis and the red (FL3) on the ordinate axis. Negative control: untreated cells marked with both fluorophores; positive control: cells treated with actinomycin 10 μg/mL for 24 h [52]. […]

Stability during storage = type: physicochemical; settings: Met residue prone to oxidation; Supplementary Figure S1
[7] = system: MDA-MB 468 breast cancer cells; settings: peptide 100 µg/mL (30 µM); earlier work, ref not given; cited from earlier work
Description: (§3) Breast cancer is the most common cancer type diagnosed worldwide. There are 2.1 million cases annually, and 627,000 deaths of women due to this disease were reported in 2018 [5]. […] However, when this motif was modified or included in longer sequences, the cytotoxic effect against human cancer cell lines increased. In ...

[8] = system: MDA-MB 231 breast cancer cells; settings: peptide 100 µg/mL (30 µM); earlier work, ref not given; cited from earlier work
Description: as §3

HTB-132 cell line [9] = experiment: MTT viability test, HTB-132 cells; type: cell-based, human; settings: 24 h, concentration range 1–100 µg/mL
[10] = MTT, 24 h at 37 °C, three independent experiments with n = 4 each

Q: With CC(C)C[C@H](NC(=O)[C@H](CCCCN)NC(=O)[C@H](CCCCN)NC(=O)[C@H](Cc1ccccc1)NC(=O)[C@H](CCCNC(=N)N)NC(=O)[C@H](Cc1c[nH]c2ccccc12)NC(=O)[C@H](CCC(N)=O)NC(=O)[C@H](Cc1c[nH]c2ccccc12)NC(=O)[C@H](CCCNC(=N)N)NC(=O)[C@@H](N)CCCNC(=N)N)C(=O)NCC(=O)NCCCC[C@H](NC(=O)CNC(=O)[C@H](CC(C)C)NC(=O)[C@H](CCCCN)NC(=O)[C@H](CCCCN)NC(=O)[C@H](Cc1ccccc1)NC(=O)[C@H](CCCNC(=N)N)NC(=O)[C@H](Cc1c[nH]c2ccccc12)NC(=O)[C@H](CCC(N)=O)NC(=O)[C@H](Cc1c[nH]c2ccccc12)NC(=O)[C@H](CCCNC(=N)N)NC(=O)[C@@H](N)CCCNC(=N)N)C(=O)NCCCCCC(N)=O [^26[F], (RRWQWRFKKLG)2-K-Ahx] (I: H-RRWQWRFKKLGK[Ahx]-NH2 / II: H-RRWQWRFKKLG; amide I:12-II:C) as the compound, how does the “cytotoxic effect against MCF-7 compared with ^26[M] (in words)” value (MCF-7 cell line; MTT, 24 h) read?
A: Its value is “greater cytotoxic effect against MCF-7 cells than the peptide”.

Q: And the “IC50, cytotoxic effect, MCF-7” value (MCF-7 cell line; [10])?
A: The value was 19 µg/mL (≈ 5.68 µM).

Q: And the “maximum cytotoxic effect, MCF-7” value (MCF-7 cell line; MTT, peptide 200 µg/mL, regardless of treatment time (2, 24, 48 h))?
A: The value was “approximately 90%”.

Q: What about the IC50 (MCF-7 cell line; human, 24 h, pH 7.4) of the same compound?
A: Its IC50 is 6 µM.

Q: What about the “cytotoxic effect against HTB-132 compared with ^26[M] (in words)” value (HTB-132 cell line [1]; MTT, 24 h) of the same compound?
A: The value was “greater cytotoxic effect against cancer cells than the original peptide”.

Q: And the “IC50, cytotoxic effect, HTB-132” value (HTB-132 cell line [1]; MTT)?
A: Its value is 43 µg/mL (≈ 12.9 µM).

Q: And the IC50 (HTB-132 cell line [1]; human, 24 h, pH 7.4)?
A: Its IC50 is 13 µM.

Q: What about the “population with depolarization of the mitochondrial membrane” value (MCF-7 cells [2]) of the same compound?
A: Its value is 19%.

Q: And the “cytotoxic effect against MCF-12 compared with HTB-132 and MCF-7 (in words)” value (MCF-12 cell line)?
A: Its value is “lower cytotoxic effect against MCF-12 cells than against breast cancer cell lines”.

Q: What about the IC50 (MCF-12 cell line; 24 h) of the same compound?
A: The IC50 was 21 µM.

Q: And the “IC50, non-tumorigenic cell line MCF-12” value (MCF-12 cell line; MTT, 24 h at 37 °C)?
A: Its value is 70 µg/mL (≈ 20.9 µM).

Q: And the “average cell size after treatment” value (MCF-7 cells [3])?
A: The value was 39.38 µm.

Q: What about the IC50 [4] of the same compound?
A: The IC50 was 6 to 13 µM.

Q: What about the “cell population dyed with both fluorophores (apoptotic process)” value (MCF-7 cells [5]) of the same compound?
A: The value was 54%.

Q: And the “cell population dyed with only PI (necrotic process)” value (MCF-7 cells [5])?
A: The value was 21%.

Q: And the “cell population with cytoplasmic membrane affected” value (MCF-7 cells [6])?
A: Its value is 10%.

Q: With CSCC[C@H](NC(=O)[C@H](CCCNC(=N)N)NC(=O)[C@H](Cc1c[nH]c2ccccc12)NC(=O)[C@H](CCC(N)=O)NC(=O)[C@H](Cc1c[nH]c2ccccc12)NC(=O)[C@H](CCCNC(=N)N)NC(=O)[C@@H](N)CCCNC(=N)N)C(=O)N[C@@H](CCCCN)C(=O)N[C@@H](CCCCN)C(=O)N[C@@H](CC(C)C)C(=O)NCC(=O)NCCCC[C@H](NC(=O)CNC(=O)[C@H](CC(C)C)NC(=O)[C@H](CCCCN)NC(=O)[C@H](CCCCN)NC(=O)[C@H](CCSC)NC(=O)[C@H](CCCNC(=N)N)NC(=O)[C@H](Cc1c[nH]c2ccccc12)NC(=O)[C@H](CCC(N)=O)NC(=O)[C@H](Cc1c[nH]c2ccccc12)NC(=O)[C@H](CCCNC(=N)N)NC(=O)[C@@H](N)CCCNC(=N)N)C(=O)NCCCCCC(N)=O [^26[M], (RRWQWRMKKLG)2-K-Ahx] (I: H-RRWQWRMKKLGK[Ahx]-NH2 / II: H-RRWQWRMKKLG; amide I:12-II:C) as the compound, how does the “stability during storage (in words)” value (Stability during storage) read?
A: Its value is “stability problems”.

Q: What about the “cytotoxic effect against MCF-7 (in words)” value (MCF-7 cell line; MTT, 24 h) of the same compound?
A: The value was “does not exhibit a significant cytotoxic effect”.

Q: And the “IC50, cytotoxic effect, MCF-7” value (MCF-7 cell line; [10])?
A: The value was over 200 µg/mL.

Q: What about the IC50 (MCF-7 cell line; MTT, 24 h at 37 °C, three independent experiments with n = 4 each, read-out: IC50, cytotoxic effect, MCF-7) of the same compound?
A: Its IC50 is over 60 µM.

Q: What about the “IC50, cytotoxic effect, HTB-132” value (HTB-132 cell line [1]; MTT) of the same compound?
A: The value was 96 µg/mL (≈ 29 µM).

Q: What about the “cellular viability, MDA-MB 468” value [7] of the same compound?
A: Its value is ~ 0%.

Q: And the “cytotoxic effect, MDA-MB 468” value [7]?
A: Its value is about 100%.

Q: What about the “cellular viability, MDA-MB 231” value [8] of the same compound?
A: Its value is ~ 0%.

Q: And the “cytotoxic effect, MDA-MB 231” value [8]?
A: The value was about 100%.

Q: What about the “cytotoxic effect at the maximum evaluated concentration, HTB-132” value (HTB-132 cell line [9]) of the same compound?
A: The value was about 55%.
